# From US20170190671A1, “BIS(ARYL)CATECHOL DERIVATIVES AS HERBICIDES” (E I DU PONT DE NEMOURS AND COMPANY, priority 2014, published 2017)
# Legend:
# Assay in all cases: Test C preemergence
# Format in all cases: in vivo
# [1] = tested on: galium (catchweed bedstraw, Galium aparine); conditions: Galium, pre-emergence, 336 h, preemergence, scale 0 to 100, read-out: Plant response rating, Galium
# Procedure, shortened: (§1)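 Seeds in loam-sand soil were treated preemergence, and plants at the 1- to 4-leaf stage (2-18 cm) in peat-based medium were sprayed postemergence, with test chemicals in a non-phytotoxic solvent containing surfactant. After 13-15 days in a greenhouse, response was rated visually against controls from 0 (no effect) to 100 (complete control).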
# [2] = tested on: waterhemp (common waterhemp, Amaranthus rudis); conditions: Amaranthus tuberculatus, pre-emergence, scale 0 to 100, read-out: Plant response rating, Waterhemp
# Procedure, shortened: as §1
# [3] = tested on: pigweed (Amaranthus retroflexus); conditions: Amaranthus retroflexus, pre-emergence, 336 h, scale 0 to 100, read-out: Plant response rating, Pigweed
# Procedure, shortened: as §1
# [4] = tested on: morningglory (Ipomoea coccinea); conditions: Ipomoea, pre-emergence, 336 h, scale 0 to 100, read-out: Plant response rating, Morningglory
# Procedure, shortened: as §1
# [5] = tested on: Italian ryegrass (Lolium multiflorum); conditions: Lolium multiflorum, pre-emergence, 336 h, scale 0 to 100, read-out: Plant response rating, Ryegrass, Italian
# Procedure, shortened: as §1
# [6] = tested on: ragweed (common ragweed, Ambrosia elatior); conditions: Ambrosia artemisiifolia, pre-emergence, 336 h, preemergence, scale 0 to 100, read-out: Plant response rating, Ragweed
# Procedure, shortened: as §1
# [7] = tested on: yellow nutsedge (Cyperus esculentus); conditions: Cyperus, pre-emergence, 336 h, scale 0 to 100, read-out: Plant response rating, Nutsedge, Yellow
# Procedure, shortened: as §1
# [8] = tested on: corn (Zea mays); conditions: Zea mays, pre-emergence, 336 h, scale 0 to 100
# Procedure, shortened: as §1
# [9] = tested on: velvetleaf (Abutilon theophrasti); conditions: Abutilon theophrasti, pre-emergence, scale 0 to 100, read-out: Plant response rating, Velvetleaf
# Procedure, shortened: as §1
# [10] = tested on: soybean (Glycine max); conditions: Glycine max, pre-emergence, preemergence, scale 0 to 100, read-out: Plant response rating, Soybean
# Procedure, shortened: as §1
# [11] = tested on: blackgrass (Alopecurus myosuroides); conditions: Alopecurus myosuroides, pre-emergence, 336 h, scale 0 to 100, read-out: Plant response rating, Blackgrass
# Procedure, shortened: as §1
# [12] = tested on: johnsongrass (Sorghum halepense); conditions: Sorghum halepense, pre-emergence, 336 h, scale 0 to 100, read-out: Plant response rating, Johnsongrass
# Procedure, shortened: as §1
# [13] = tested on: barnyardgrass (Echinochloa crus-galli); conditions: Echinochloa crus-galli, pre-emergence, read-out: Plant response rating, Barnyardgrass
# Procedure, shortened: as §1
# [14] = tested on: lambsquarters (Chenopodium album); conditions: Chenopodium album, pre-emergence, 336 h, scale 0 to 100, read-out: Plant response rating, Lambsquarters
# Procedure, shortened: as §1
smiles,measurement,setting,value
"N#Cc1cccc(Oc2ncc(Br)cn2)c1Oc1ncc(Cl)cn1 [Compound 5, 3-[(5-bromo-2-pyrimidinyl)oxy]-2-[(5-chloro-2-pyrimidinyl)oxy]benzonitrile]",pest or weed control at 31 g/ha,[1]; 31 g ai/ha,50%
same,pest or weed control at 62 g/ha,[1]; 62 g ai/ha,100%
same,pest or weed control at 125 g/ha,[1]; 125 g ai/ha,100%
same,pest or weed control at 31 g/ha,"[2]; 31 g ai/ha, preemergence",100%
same,pest or weed control at 62 g/ha,"[2]; 62 g ai/ha, preemergence",100%
same,pest or weed control at 125 g/ha,"[2]; 125 g ai/ha, preemergence",100%
same,pest or weed control at 16 g/ha,"[2]; Preemergence, 16 g ai/ha",85%
same,pest or weed control at 31 g/ha,"[3]; 31 g ai/ha, preemergence",100%
same,pest or weed control at 62 g/ha,"[3]; 62 g ai/ha, preemergence",100%
same,pest or weed control at 125 g/ha,"[3]; 125 g ai/ha, preemergence",100%
same,pest or weed control at 16 g/ha,"[3]; Preemergence, 16 g ai/ha",100%
same,pest or weed control at 31 g/ha,"[4]; 31 g ai/ha, preemergence",60%
same,pest or weed control at 62 g/ha,"[4]; 62 g ai/ha, preemergence",80%
same,pest or weed control at 125 g/ha,"[4]; 125 g ai/ha, preemergence",95%
same,pest or weed control at 16 g/ha,"[4]; Preemergence, 16 g ai/ha",30%
same,pest or weed control at 31 g/ha,"[5]; 31 g ai/ha, preemergence",5%
same,pest or weed control at 62 g/ha,"[5]; 62 g ai/ha, preemergence",55%
same,pest or weed control at 125 g/ha,"[5]; 125 g ai/ha, preemergence",60%
same,pest or weed control at 16 g/ha,"[5]; Preemergence, 16 g ai/ha",0%
same,pest or weed control at 31 g/ha,[6]; 31 g ai/ha,20%
same,pest or weed control at 62 g/ha,[6]; 62 g ai/ha,80%
same,pest or weed control at 125 g/ha,[6]; 125 g ai/ha,100%
same,pest or weed control at 31 g/ha,"[7]; 31 g ai/ha, preemergence",5%
same,pest or weed control at 62 g/ha,"[7]; 62 g ai/ha, preemergence",25%
same,pest or weed control at 125 g/ha,"[7]; 125 g ai/ha, preemergence",60%
same,pest or weed control at 16 g/ha,"[7]; Preemergence, 16 g ai/ha",0%
same,"Corn plant response rating (crop injury, 0 = no effect, 100 = complete kill) at 31 g/ha","[8]; 31 g ai/ha, preemergence",25%
same,"Corn plant response rating (crop injury, 0 = no effect, 100 = complete kill) at 62 g/ha","[8]; 62 g ai/ha, preemergence",60%
same,"Corn plant response rating (crop injury, 0 = no effect, 100 = complete kill) at 125 g/ha","[8]; 125 g ai/ha, preemergence",75%
same,"Corn plant response rating (crop injury, 0 = no effect, 100 = complete kill) at 16 g/ha","[8]; Preemergence, 16 g ai/ha",5%
same,pest or weed control at 31 g/ha,"[9]; 31 g ai/ha, preemergence",90%
same,pest or weed control at 62 g/ha,"[9]; 62 g ai/ha, preemergence",100%
same,pest or weed control at 125 g/ha,"[9]; 125 g ai/ha, preemergence",100%
same,pest or weed control at 16 g/ha,"[9]; Preemergence, 16 g ai/ha",60%
same,plant injury at 31 g/ha,[10]; 31 g ai/ha,45%
same,plant injury at 62 g/ha,[10]; 62 g ai/ha,65%
same,plant injury at 125 g/ha,[10]; 125 g ai/ha,85%
same,pest or weed control at 31 g/ha,"[11]; 31 g ai/ha, preemergence",30%
same,pest or weed control at 62 g/ha,"[11]; 62 g ai/ha, preemergence",40%
same,pest or weed control at 125 g/ha,"[11]; 125 g ai/ha, preemergence",70%
same,pest or weed control at 16 g/ha,"[11]; Preemergence, 16 g ai/ha",10%
same,pest or weed control at 31 g/ha,"[12]; 31 g ai/ha, preemergence",40%
same,pest or weed control at 62 g/ha,"[12]; 62 g ai/ha, preemergence",70%
same,pest or weed control at 125 g/ha,"[12]; 125 g ai/ha, preemergence",80%
same,pest or weed control at 16 g/ha,"[12]; Preemergence, 16 g ai/ha",0%
same,pest or weed control at 31 g/ha,"[13]; 31 g ai/ha, preemergence, scale 0 to 100",60%
same,pest or weed control at 62 g/ha,"[13]; 62 g ai/ha, preemergence, scale 0 to 100",85%
same,pest or weed control at 125 g/ha,"[13]; 125 g ai/ha, preemergence, scale 0 to 100",98%
same,pest or weed control at 16 g/ha,"[13]; Preemergence, 16 g ai/ha, scale 0 to 100 (0 no effect, 100 complete control)",20%
same,pest or weed control at 31 g/ha,"[14]; 31 g ai/ha, preemergence",100%
same,pest or weed control at 62 g/ha,"[14]; 62 g ai/ha, preemergence",100%
same,pest or weed control at 125 g/ha,"[14]; 125 g ai/ha, preemergence",100%
same,pest or weed control at 16 g/ha,"[14]; Preemergence, 16 g ai/ha",80%
